Laboratory results published in ChEMBL document CHEMBL1143232, “Antiviral activities against herpes simplex virus type 1 by HPH derivatives and their structure-activity relationships” (Bioorg Med Chem Lett, 2008).
pEC50: −log10 of the molar value.

Legend:
Human alphaherpesvirus 1 = assay: Antiviral activity against HSV1 KOS in african green monkey Vero cells by plaque reduction assay; format: functional, organism-based; conditions: Human alphaherpesvirus 1, KOS
[1] = Cytotoxicity against african green monkey Vero cells after 69 hrs by Alamar blue assay; format: cell-based; conditions: chlorocebus sabaeus
[2] = Ratio of CC50 for african green monkey Vero cells to EC50 for HSV1 KOS; format: functional
[3] = Partition coefficient, log P of the compound; format: physicochemical; conditions: octanol/water

Compound | pEC50 (Human alphaherpesvirus 1) | CC50 at 69 h [1] [µM] | Ratio CC50/EC50 [2] | logP [3]
COC(=O)C(Cc1c[nH]cn1)NCc1cc(N(C)C)cc(C(=O)NC(Cc2c[nH]cn2)C(=O)OC)n1 (configuration not stated) | < 4.00 | > 100 | – | –
CSCCNC(=O)c1cccc(C(=O)NCCSC)n1 | < 4.00 | > 100 | – | –
O=C(O)CCNC(=O)c1cc(-c2cccc3ccccc23)cc(C(=O)NCCC(=O)O)n1 | < 4.00 | > 100 | – | –
Nc1nc2c(ncn2COCCO)c(=O)[nH]1 [ACYCLOVIR] | 5.22 | > 100 | – | –
O=C(O)CCNC(=O)c1cccc(C(=O)NCCC(=O)O)n1 | < 4.00 | > 100 | – | –
CC(C)(C)SCCNC(=S)c1cccc(C(=S)NCCSC(C)(C)C)n1 | 4.82 | 37 | 2.5 | 4.4
O=C(CCNC(=O)c1cc(-c2cccc3ccccc23)cc(C(=O)NCCC(=O)NO)n1)NO | < 4.00 | > 100 | – | –
CC(C)(C)SCCNC(=O)c1cccc(C(=O)NCCSC(C)(C)C)n1 | 4.10 | 500 | 6.3 | 2.7
O=C(CCNC(=O)c1cccc(C(=O)NCCC(=O)NO)n1)NO | < 4.00 | > 100 | – | –
